In article PMC3304435 (Biochemistry, 2012):

Target: Escherichia coli RtcB ligase (Escherichia coli, UniProt P46850)
Format: biochemical
Settings: Mn2+; 3′-P / 5′-OH tRNA-mimic RNA substrate; estimated upper limit

Escherichia coli RtcB ligase, sequence (P46850 whole entry): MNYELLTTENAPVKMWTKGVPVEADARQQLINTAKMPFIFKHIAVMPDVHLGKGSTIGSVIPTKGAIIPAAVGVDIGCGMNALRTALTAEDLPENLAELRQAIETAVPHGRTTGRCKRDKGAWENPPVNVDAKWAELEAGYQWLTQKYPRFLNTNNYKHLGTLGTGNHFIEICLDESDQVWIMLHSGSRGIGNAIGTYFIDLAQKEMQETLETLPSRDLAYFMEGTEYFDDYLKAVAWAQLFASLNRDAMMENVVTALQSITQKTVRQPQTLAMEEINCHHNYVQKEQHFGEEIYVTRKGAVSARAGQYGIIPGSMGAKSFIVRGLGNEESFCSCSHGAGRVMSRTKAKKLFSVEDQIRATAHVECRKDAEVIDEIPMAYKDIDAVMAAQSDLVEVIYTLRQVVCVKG

Km: < 16 µM
SMILES: Nc1nc2c(ncn2[C@@H]2O[C@H](COP(=O)(O)OP(=O)(O)OP(=O)(O)O)[C@@H](O)[C@H]2O)c(=O)[nH]1 [GTP]
